The target of one series is T1, hERG channel (Homo sapiens, UniProt Q12809).
T1 construct: expressed in transfected cells; host or cells: HEK293
The series is described as follows: hERG channel functional assay (FluxOR thallium fluorescence). The series is classed as cell-based. The following applies: HEK-293 cells expressing hERG. As to the method:
The hERG channel assay was used to identify if OLHHA may cause cardiotoxicity (FIG. 8). […] FluxOR™ is protected by AM groups which prevent fluorescence outside the cell. When it enters the cell, esterases in the cytosol remove the AM groups, and FluxOR™ will be converted to its active form in which it is capable of binding to thallium, which moves into the cytoplasm through the hERG channel, resulting in the emission of fluorescence. HEK293 cells expressing the hERG channel were seeded in poly-D-lysine-treated, black 96-well plates and incubated for 24 hours. […] Next, 20 μl of FluxOR™ dissolved in the assay buffer were added. The fluorochrome was incubated with the cells for 1 hour at room temperature. Next, the plates were washed with 50 μl of assay buffer and the compound OLHHA at a dilution of 1:200 (2 μl of OLHHA/400 μl of assay buffer) was added using an EP3 station. […] The plates were incubated with OLHHA for 30 minutes and then read in a […], which added 5 μl of stimulation buffer (Tl2SO4+K2SO4), and read the fluorescence for 120 s, which allowed analyzing channel kinetics.
(Block of hERG is tested as a sign of cardiac risk.)

Another series deals with Zucker rats. The series is described as follows: Liver fat content and plasma triglyceride level of Zucker rats. The series is classed as in vivo, rat. Conditions: obese Zucker rats, 5 mg/kg once a day 15 days. As to the method: (§1) All the experiments were carried out in obese (fa/fa) and thin (Fa/?) male Zucker rats 8-9 weeks of age. The animals were placed in individual cages in a room with controlled temperature, humidity and lighting (light/darkness cycles of 12 hours), and with free access to food and water (standard laboratory diet).
(§2) OLHHA was dissolved in a vehicle containing 5% Tween 80 in saline and intraperitoneally (i.p.) administered at a dose of 5 mg/kg (volume of 1 ml/kg body weight) at the beginning of the light cycle (9:00 am-10:00 am) for 15 consecutive days. Two hours after the last injection, the animals were euthanized using sodium pentobarbital (50 mg/kg, i.p.) and blood and liver samples were extracted. The blood was centrifuged at 2100×g for 8 minutes at 4° C. and the obtained plasma was kept at −80° C. for subsequent analysis. The liver samples were also stored at −80° C.
The total liver fat content and the plasma triglyceride level were evaluated in thin and obese Zucker rats after a 15-day treatment with OLHHA (5 mg/kg, once a day). The samples for lipid analysis were obtained 2 hours after the last injection.
The Bligh & Dyer method (Bligh and Dyer, 1959) was followed for liver fat quantification. […] The fat content was expressed as % of tissue weight. […]

The target of the next series is CYP2D6 (Homo sapiens, UniProt P10635). Nature of the series: biochemical.
The next series addresses CYP2C9 (Homo sapiens, UniProt P11712). Nature of the series: P450 cytochrome inhibition fluorometric assay CYP2C9. It is filed as in vitro ADME. The protocol:
However, most human CYPs tolerate acetonitrile. […] OLHHA was tested in triplicate.

In series [1] the test system is obese rats. The series is described as follows: Circulating pro-inflammatory cytokine level in obese rats (ELISA). It is filed as in vivo, rat. The following applies: 5 mg/kg i.p. 15 days. As to the method:
as §1, §2
Circulating IL-6 and TNF-α levels were measured by means of ELISAs using commercial kits (Abcam).
Background: An ELISA detects its analyte on a solid surface through an enzyme-linked reagent.

The test system of series [2] is obese rats. Nature of the series: Hepatic serum transaminase level in obese rats. It is filed as in vivo, rat. The following applies: 5 mg/kg i.p. 15 days. As to the method: as §1, §2
Commercial kits were used for determining hepatic serum transaminases and they were analyzed in a Hitachi 737 automatic biochemistry analyzer.

A further series deals with CYP3A4 (Homo sapiens, UniProt P08684). Nature of the series: biochemical.
Series [3] deals with liver of obese Zucker rats. The series is described as follows: Histological evaluation of fatty liver and Caspase-3 in obese Zucker rats. It is filed as in vivo, rat. The protocol: as §1, §2
The histological analysis of the livers of obese Zucker rats treated with the vehicle or with OLHHA confirmed the biochemistry total fat quantification results.

The test system of series [4] is obese rats. Nature of the series: Kidney function-related plasma protein level in obese rats. The series is classed as in vivo, rat. The following applies: 5 mg/kg i.p. 15 days. As to the method:
as §1, §2
Commercial kits were used for determining serum creatinine and urea and they were analyzed in a Hitachi 737 automatic biochemistry analyzer.

A further series has as its system liver of Zucker rats. The series is described as follows: Gene expression (RT-qPCR) in the liver of Zucker rats. It is filed as in vivo, rat. As to the method: as §1, §2
For isolating total RNA from the liver, the samples were homogenized in Trizol and then purified using Qiagen RNeasy Minelute Cleanup Kit (selectively eliminates most molecules smaller than 200 nucleotides), also including a DNAse treatment. The total mRNA concentration was quantified using a spectrophotometer. In all the cases, the A260/280 ratio was between 1.8 and 2. Complementary DNA synthesis was carried out by reverse transcription using the Transcriptor Reverse Transcriptase kit (Transcriptor RT, Roche Diagnostic). For real-time PCR (RT-qPCR), an ABI PRISM® 7300 Real-Time PCR System (Applied Biosystems) and TaqMan probes were used. The single-product amplification was confirmed by means of analyzing the melting curves. The values of each sample were normalized with respect to the beta-actin constitutive gene. The relative quantification was calculated by means of the ΔΔCt method and normalized to the control group. The Taqman probes were obtained from the rat genome database of Applied Biosystems (http://bioinfo.appliedbiosystems.com/genome-database/gene-expression.html): […]
(In qPCR the cycle at which signal appears reflects the starting amount.)

Series [5] is described as follows: Body weight gain and food intake in Zucker rats, chronic treatment. The following applies: 5 mg/kg i.p. daily 15 days. It is filed as in vivo, rat. The protocol:
as §1, §2
Animals received an injection (i.p.) of vehicle or OLHHA (5 mg/kg) daily for 15 consecutive days. For this experiment, 8 rats were used per group. The total body weight gain (g) and the accumulated food intake (g/kg of body weight) were evaluated daily.

In series [6] the test system is liver of obese Zucker rats. Nature of the series: Protein levels of lipid metabolism enzymes in the liver of obese Zucker rats. The series is classed as in vivo, rat. Conditions: change seen in mRNA (reduction). As to the method: as §1, §2
The mark [7] stands for this setting: obese Zucker rats liver, immunohistochemistry.
Where [8] appears, read: obese Zucker rats, chronic treatment, vs vehicle.

“And” between values parts separate entries of the source, which are not always exact repeats. Identical values can stand only once. Like-named read-outs stand apart in the source and are kept apart here.

T1 sequence (Q12809 whole entry): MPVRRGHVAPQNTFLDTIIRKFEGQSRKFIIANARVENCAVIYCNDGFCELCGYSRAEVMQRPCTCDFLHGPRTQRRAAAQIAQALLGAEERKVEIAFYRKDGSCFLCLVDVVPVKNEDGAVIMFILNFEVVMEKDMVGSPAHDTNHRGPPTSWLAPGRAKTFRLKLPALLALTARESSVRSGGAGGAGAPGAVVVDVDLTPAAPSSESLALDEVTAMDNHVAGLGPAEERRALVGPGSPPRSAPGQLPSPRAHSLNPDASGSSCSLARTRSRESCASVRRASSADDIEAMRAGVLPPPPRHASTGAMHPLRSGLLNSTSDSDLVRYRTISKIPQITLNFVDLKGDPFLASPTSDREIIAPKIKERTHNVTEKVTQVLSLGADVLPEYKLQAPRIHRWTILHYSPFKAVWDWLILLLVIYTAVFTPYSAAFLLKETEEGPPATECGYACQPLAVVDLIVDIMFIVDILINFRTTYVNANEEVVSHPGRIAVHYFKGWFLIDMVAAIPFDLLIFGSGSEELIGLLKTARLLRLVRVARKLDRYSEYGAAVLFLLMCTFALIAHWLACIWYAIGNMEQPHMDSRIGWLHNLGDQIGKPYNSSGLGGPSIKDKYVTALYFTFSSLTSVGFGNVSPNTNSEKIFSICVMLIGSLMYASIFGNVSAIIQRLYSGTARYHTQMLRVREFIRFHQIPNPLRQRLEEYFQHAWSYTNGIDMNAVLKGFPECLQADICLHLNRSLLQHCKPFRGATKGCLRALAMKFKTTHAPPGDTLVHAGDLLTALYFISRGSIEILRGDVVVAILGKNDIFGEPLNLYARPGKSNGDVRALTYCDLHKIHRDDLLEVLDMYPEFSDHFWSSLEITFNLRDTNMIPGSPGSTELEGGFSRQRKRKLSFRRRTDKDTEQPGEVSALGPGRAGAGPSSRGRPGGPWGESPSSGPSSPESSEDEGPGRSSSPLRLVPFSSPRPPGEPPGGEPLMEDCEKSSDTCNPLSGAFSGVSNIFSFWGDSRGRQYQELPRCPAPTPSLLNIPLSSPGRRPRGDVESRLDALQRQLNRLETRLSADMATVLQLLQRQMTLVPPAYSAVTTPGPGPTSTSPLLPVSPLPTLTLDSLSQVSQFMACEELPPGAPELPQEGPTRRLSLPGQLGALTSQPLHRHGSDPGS
Sequence of CYP2C9 (P11712 whole entry): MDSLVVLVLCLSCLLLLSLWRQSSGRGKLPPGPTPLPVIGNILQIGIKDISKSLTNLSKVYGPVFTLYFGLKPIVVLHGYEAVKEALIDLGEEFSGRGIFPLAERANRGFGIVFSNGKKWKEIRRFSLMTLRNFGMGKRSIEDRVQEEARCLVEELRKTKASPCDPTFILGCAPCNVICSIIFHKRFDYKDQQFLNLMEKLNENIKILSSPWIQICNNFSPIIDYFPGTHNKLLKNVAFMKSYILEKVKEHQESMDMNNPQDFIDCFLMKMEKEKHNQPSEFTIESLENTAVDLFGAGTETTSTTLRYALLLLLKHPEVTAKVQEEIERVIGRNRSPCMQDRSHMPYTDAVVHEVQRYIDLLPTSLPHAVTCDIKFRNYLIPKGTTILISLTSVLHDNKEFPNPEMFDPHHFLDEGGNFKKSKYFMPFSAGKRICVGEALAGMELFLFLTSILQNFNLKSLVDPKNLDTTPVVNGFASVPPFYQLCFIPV
Sequence of CYP2D6 (P10635 whole entry): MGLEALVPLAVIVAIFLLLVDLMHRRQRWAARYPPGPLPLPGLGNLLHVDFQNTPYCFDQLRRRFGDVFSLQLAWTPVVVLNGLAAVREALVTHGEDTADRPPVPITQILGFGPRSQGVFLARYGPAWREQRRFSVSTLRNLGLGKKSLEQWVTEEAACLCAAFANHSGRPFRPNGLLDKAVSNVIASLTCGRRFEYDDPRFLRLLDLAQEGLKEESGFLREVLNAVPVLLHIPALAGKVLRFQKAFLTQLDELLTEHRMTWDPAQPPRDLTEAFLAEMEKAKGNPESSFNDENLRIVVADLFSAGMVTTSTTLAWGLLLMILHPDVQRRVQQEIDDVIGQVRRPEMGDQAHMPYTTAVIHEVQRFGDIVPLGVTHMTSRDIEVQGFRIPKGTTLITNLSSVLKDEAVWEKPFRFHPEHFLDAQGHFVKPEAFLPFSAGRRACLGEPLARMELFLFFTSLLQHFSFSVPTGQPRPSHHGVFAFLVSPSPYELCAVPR
Sequence of CYP3A4 (P08684 whole entry): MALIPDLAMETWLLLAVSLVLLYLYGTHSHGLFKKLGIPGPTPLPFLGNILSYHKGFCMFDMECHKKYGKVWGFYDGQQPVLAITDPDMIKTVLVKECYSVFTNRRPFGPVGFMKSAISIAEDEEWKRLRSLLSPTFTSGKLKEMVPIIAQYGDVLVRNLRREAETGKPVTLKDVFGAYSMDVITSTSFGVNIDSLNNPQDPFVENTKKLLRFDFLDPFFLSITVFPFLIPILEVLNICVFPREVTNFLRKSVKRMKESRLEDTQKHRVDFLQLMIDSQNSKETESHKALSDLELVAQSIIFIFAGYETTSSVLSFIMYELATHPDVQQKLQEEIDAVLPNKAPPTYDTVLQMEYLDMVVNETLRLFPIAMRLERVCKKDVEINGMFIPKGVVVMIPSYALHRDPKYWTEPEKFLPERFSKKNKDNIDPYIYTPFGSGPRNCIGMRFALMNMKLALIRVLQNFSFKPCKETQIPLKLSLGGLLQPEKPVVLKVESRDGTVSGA

On hERG channel (human, HEK293 cells expressing the hERG channel, pH 7.4, probe FluxOR fluorescent dye / thallium ions, standard control inhibitors, unit M), `CC(C)COCC(CN(Cc1ccccc1)c1ccccc1)N1CCCC1` (stereo not shown) [bepridil, reference compound] showed an IC50 at 30 min of 2.2 µM.

As for `CCCCCCCC/C=C\CCCCCCCC(=O)NC(C)Cc1ccc(O)c(O)c1` (stereo not shown) [OLHHA, N-(1-(3,4-dihydroxyphenyl)propan-2-yl)oleamide], in the series on Zucker rats (five-fold increase in obese vs thin), the circulating triglycerides entry was “prevented these increases”. For the same compound, the “total liver fat content” value with Zucker rats (three-fold increase in obese vs thin) was “prevented these increases”. The IC50 at CYP2D6 was 23.3 µM and > 10 µM. At hERG channel (maximum concentration 150 μM), this compound came in with an IC50 of over 150 µM. Also, the IC50 on CYP2C9 (degree of inhibition, read-out: CYP2C9 Inhibitor category) fell in the range of 1 to 10 µM. The IC50 at CYP2C9 (fluorometric assay, maximum dose 105 μM, read-out: CYP2C9 IC50) stood at 6.8 µM. In the series on obese rats [1], the “plasma IL6 levels” value is on record as “no changes were detected”. Further, the TNF-α level entry with obese rats [1] (did not reach a degree of significance) is listed as “drop”. For the same compound, the “aspartate aminotransferase (AST) level” value with obese rats [2] (not statistically significant) is on record as “reduction”. Also, the “alanine aminotransferase (ALT) level” value with obese rats [2] (statistically significant (p<0.05)) is recorded as “reduction”. Further, the “gamma-glutamyl transpeptidase (GGt)” value with obese rats [2] (vs vehicle) is listed as “no effect was observed”. At CYP3A4, the IC50 was 14.8 µM and > 10 µM. Further, in series [3] (setting [7]), the “expression of activated Caspase-3” value is on record as “reduced the expression” and the “expression of total Caspase-3” value was “reduced the expression”. Moreover, in series [3] (setting [8]), the “apoptotic activity in liver” value is listed as “reduction in apoptotic activity”; the “liver fat content (hematoxylin-eosin and oil red staining)” value is recorded as “reduction in liver fat content”. In the series with obese rats [4], the creatinine levels entry was “did not affect”. The urea levels result in the series on obese rats [4] (vs vehicle, p<0.001) is recorded as “significant reduction”. In the series with liver of Zucker rats (5 mg/kg i.p. 15 days), the “ACOX mRNA expression” value was “significant increase”, the “FAS mRNA expression (fatty acid biosynthesis)” value is “significant reduction”, the “HMG-CoAR mRNA expression (cholesterol biosynthesis)” value is on record as “significant reduction” and the “INSIG2 mRNA expression” value is listed as “significantly increased”. Further, the “NAPE-PLD mRNA expression” value in the series with liver of Zucker rats (5 mg/kg i.p. 15 days) was “significantly reduced”. Besides, in the series on liver of Zucker rats (chronic treatment), the “L-FABP mRNA level” value is “increased”. Also, in series [5] (obese Zucker rats), the accumulated food intake result is listed as “did not cause any effect” and the body weight gain entry is reported as “did not cause any effect”. Further, the accumulated food intake entry in series [5] (thin Zucker rats, starting on the fifth day, vs vehicle) is “significant reduction”. Also, the body weight gain entry in series [5] (thin Zucker rats, vs vehicle) is recorded as “significant inhibition”. Also, in [6], the “FAS protein expression level” value is reported as “confirmed at the protein expression level” and the “HMG-CoAR protein expression level” value is reported as “confirmed at the protein expression level”.
